From ChEMBL document CHEMBL3390847, “Boronic acids in medicinal chemistry: anticancer, antibacterial and antiviral applications” (Medchemcomm, 2010)
In brackets after ≈: the same amount, converted by molar mass. One block for each compound: values may come before it.

What was measured:
[1] = tested on: B16; test: Cytotoxicity against mouse B16 cells; type: functional, cell-based
[2] = Cytotoxicity against human 1-87 cells; type: functional, cell-based
[3] = biological target: Tubulin; test: Inhibition of tubulin polymerization (unknown origin) after 30 mins; type: protein-complex assay, Homo sapiens
[4] = biological target: T1, Proteasome Macropain subunit MB1 (Homo sapiens, UniProt P28074); test: Inhibition of chymotrypsin-like activity of proteasome beta5 subunit (unknown origin)
T1 sequence (P28074 whole entry): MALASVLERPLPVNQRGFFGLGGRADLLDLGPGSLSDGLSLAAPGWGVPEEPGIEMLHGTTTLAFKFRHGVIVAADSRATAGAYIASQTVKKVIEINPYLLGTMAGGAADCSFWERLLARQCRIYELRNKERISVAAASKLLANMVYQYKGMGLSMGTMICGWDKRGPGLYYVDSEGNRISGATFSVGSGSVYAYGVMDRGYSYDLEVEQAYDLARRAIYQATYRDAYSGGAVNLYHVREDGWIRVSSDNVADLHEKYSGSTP

[5] = biological target: T2, Proteasome subunit beta type-7 (Homo sapiens, UniProt Q99436); test: Inhibition of trypsin-like activity of proteasome beta7 subunit (unknown origin)
T2 sequence (Q99436 whole entry): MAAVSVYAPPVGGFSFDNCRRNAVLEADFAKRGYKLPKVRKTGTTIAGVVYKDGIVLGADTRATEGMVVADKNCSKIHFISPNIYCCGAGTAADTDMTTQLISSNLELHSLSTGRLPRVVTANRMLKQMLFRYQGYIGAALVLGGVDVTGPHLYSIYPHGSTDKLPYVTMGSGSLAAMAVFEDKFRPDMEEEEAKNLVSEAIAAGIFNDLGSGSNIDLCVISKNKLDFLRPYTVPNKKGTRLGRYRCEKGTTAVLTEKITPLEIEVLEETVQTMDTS

[6] = Inhibition of post-glutamyl peptide hydrolysis proteasome subunit (unknown origin); set-up: species or system Homo sapiens
[7] = tested on: Staphylococcus aureus; test: Antimicrobial activity against Staphylococcus aureus […] after 18 hrs by broth macrodilution assay; type: functional
[8] = tested on: Staphylococcus epidermidis; test: Antimicrobial activity against Staphylococcus epidermidis ATCC 12228 after 18 hrs by broth macrodilution assay; type: functional; details: ATCC 12228, 18 h
[9] = biological target: Tubulin; test: Inhibition of tubulin polymerization (unknown origin); type: protein-complex assay, Homo sapiens
[10] = tested on: MCF7; test: Cytotoxicity against human MCF7 cells; type: functional, cell-based
[11] = Inhibition of tubulin polymerization in rat A10 cells assessed as microtubule loss; type: cell-based
[12] = biological target: Tubulin (Homo sapiens) (UniProt P68371+Q9H4B7+P0DPH7+P68366+Q13509+Q71U36+P04350+Q3ZCM7+P07437+P68363+Q9BQE3+Q6PEY2+Q13885+Q9BVA1+Q9BUF5); test: Displacement of [3H]colchicine from tubulin (unknown origin) at 5 uM; type: protein-complex assay
[13] = Inhibition of alpha-chymotrypsin (unknown origin); set-up: species or system Homo sapiens
[14] = tested on: Bacillus subtilis; test: Antimicrobial activity against Bacillus subtilis ATCC 23857 after 18 hrs by broth macrodilution assay; type: functional; details: ATCC 23857, 18 h
[15] = tested on: Moraxella catarrhalis; test: Antimicrobial activity against Moraxella catarrhalis after 18 hrs by broth macrodilution assay; type: functional
[16] = Inhibition of beta-lactamase SHV-1 (unknown origin) expressed in Escherichia coli DH10B using nitrocefin as substrate
[17] = Inhibition of beta-lactamase SHV-1 D104K/G238S mutant (unknown origin) expressed in Escherichia coli DH10B using nitrocefin as substrate
[18] = Inhibition of beta-lactamase SHV2 G238S mutant (unknown origin) expressed in Escherichia coli DH10B using nitrocefin as substrate
[19] = Inhibition of beta-lactamase SHV2 D104K mutant (unknown origin) expressed in Escherichia coli DH10B using nitrocefin as substrate
[20] = Inhibition of AmpC beta-lactamase N289A mutant (unknown origin)
[21] = Inhibition of TEM-1 (unknown origin)
[22] = Inhibition of TEM-30 (unknown origin)
[23] = biological target: T3, Epidermal growth factor receptor (Homo sapiens, UniProt P00533); test: Inhibition of EGFR kinase (unknown origin) using poly(Glu:Tyr) as substrate at 1 uM
[24] = biological target: T3, Epidermal growth factor receptor; test: Inhibition of EGFR kinase (unknown origin) using poly(Glu:Tyr) as substrate
[25] = tested on: A-431; test: Cytotoxicity against human A431 cells; type: functional

T3 sequence (P00533 whole entry): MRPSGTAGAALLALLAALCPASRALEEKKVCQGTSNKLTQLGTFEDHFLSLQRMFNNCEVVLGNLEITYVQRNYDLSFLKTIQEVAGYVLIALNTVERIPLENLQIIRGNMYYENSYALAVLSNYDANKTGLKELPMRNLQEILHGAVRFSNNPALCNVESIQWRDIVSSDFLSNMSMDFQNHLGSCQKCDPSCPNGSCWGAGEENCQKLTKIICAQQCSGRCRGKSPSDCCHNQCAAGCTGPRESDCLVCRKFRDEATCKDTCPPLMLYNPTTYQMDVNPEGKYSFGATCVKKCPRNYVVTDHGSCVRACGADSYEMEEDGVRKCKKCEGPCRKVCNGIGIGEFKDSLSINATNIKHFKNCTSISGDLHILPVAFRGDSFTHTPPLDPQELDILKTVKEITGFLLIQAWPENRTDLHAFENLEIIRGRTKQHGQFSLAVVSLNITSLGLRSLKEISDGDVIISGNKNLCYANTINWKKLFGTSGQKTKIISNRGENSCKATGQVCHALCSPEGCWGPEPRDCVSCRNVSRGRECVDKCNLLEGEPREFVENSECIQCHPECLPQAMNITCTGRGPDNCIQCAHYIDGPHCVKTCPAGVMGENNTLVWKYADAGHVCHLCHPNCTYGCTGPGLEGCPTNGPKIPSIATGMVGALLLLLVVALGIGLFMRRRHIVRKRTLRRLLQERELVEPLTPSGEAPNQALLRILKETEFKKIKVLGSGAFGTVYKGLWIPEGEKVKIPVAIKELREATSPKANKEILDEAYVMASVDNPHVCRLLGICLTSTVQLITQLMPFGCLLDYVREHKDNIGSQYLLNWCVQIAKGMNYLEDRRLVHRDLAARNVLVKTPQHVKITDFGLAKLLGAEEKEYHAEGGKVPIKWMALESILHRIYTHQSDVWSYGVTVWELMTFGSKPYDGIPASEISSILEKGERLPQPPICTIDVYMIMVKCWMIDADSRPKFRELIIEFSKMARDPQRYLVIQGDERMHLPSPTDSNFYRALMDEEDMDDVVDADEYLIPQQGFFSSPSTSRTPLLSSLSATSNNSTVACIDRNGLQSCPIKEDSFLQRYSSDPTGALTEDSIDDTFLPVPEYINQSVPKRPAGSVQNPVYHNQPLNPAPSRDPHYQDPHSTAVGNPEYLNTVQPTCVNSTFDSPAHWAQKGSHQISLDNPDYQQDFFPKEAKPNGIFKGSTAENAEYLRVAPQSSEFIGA

SMILES: COc1cc(/C=C\c2ccc(B(O)O)cc2)cc(OC)c1
IC50 [1]: 12 µM
IC50 [2]: 9.1 µM
IC50 [3]: 79 µM

IC50 [4]: 0.00055 µM
IC50 [5]: > 0.02 µM
IC50 [6]: 0.0109 µM
SMILES: CC(C)C[C@H](NC(=O)[C@H](Cc1ccccc1)NC(=O)[C@H](Cc1ccccc1)NC(=O)c1cnccn1)B(O)O

SMILES: Cc1ccc2cccc(OB(c3ccc(Cl)cc3)c3ccc(Cl)cc3)c2n1
MIC [7]: 16 µg/mL (≈ 40.8 µM)
MIC [8]: 8 µg/mL (≈ 20.4 µM)

IC50 [4]: 0.00038 µM
IC50 [5]: > 0.02 µM
IC50 [6]: 0.00391 µM
SMILES: CC(C)C[C@H](NC(=O)[C@H](Cc1ccc2ccccc2c1)NC(=O)[C@H](CC(C)C)NC(=O)c1cnccn1)B1O[C@@H]2[C@H]3CC[C@H](C3(C)C)[C@]2(C)O1

SMILES: COc1ccc(/C=C\c2cc(OC)c(OC)c(OC)c2)cc1B(O)O
IC50 [9]: 1.5 µM
IC50 [10]: 0.017 µM
EC50 [11]: 0.058 µM
inhibition [12]: 79%
IC50 [1]: 0.0063 µM
IC50 [2]: 0.013 µM
IC50 [3]: 22 µM

SMILES: COc1cc(/C=C\c2cccc(B(O)O)c2)cc(OC)c1OC
IC50 [1]: 0.49 µM
IC50 [2]: 2.1 µM
IC50 [3]: > 100 µM

Ki [13]: 10000 µM
SMILES: OCc1ccccc1 [BENZYL ALCOHOL]

SMILES: Clc1cccc(B(Oc2ccc(Cl)c3cccnc23)c2cccc(Cl)c2)c1
MIC [7]: 0.5 µg/mL (≈ 1.21 µM)
MIC [8]: 0.25 µg/mL (≈ 0.606 µM)
MIC [14]: 32 µg/mL (≈ 77.6 µM)
MIC [15]: ≤ 0.125 µg/mL

SMILES: COc1cc(C(=O)/C=C/c2cc(OC)c(OC)c(OC)c2)ccc1B(O)O
IC50 [9]: > 40 µM
IC50 [10]: > 2.5 µM
EC50 [11]: > 15 µM

SMILES: C=CB(Oc1cccc2cccnc12)c1ccccc1
MIC [7]: 2 µg/mL (≈ 7.72 µM)
MIC [8]: 1 µg/mL (≈ 3.86 µM)
MIC [15]: 2 µg/mL (≈ 7.72 µM)

SMILES: COc1cc(C(=O)/C=C/c2cc(OC)c(OC)c(OC)c2)ccc1O
IC50 [9]: > 40 µM
IC50 [10]: > 2.5 µM
EC50 [11]: 18 µM

IC50 [4]: 0.00039 µM
IC50 [5]: > 0.02 µM
IC50 [6]: 0.00401 µM
SMILES: CC(C)C[C@H](NC(=O)[C@H](Cc1ccc(O)cc1)NC(=O)[C@H](Cc1ccccc1)NC(=O)c1cnccn1)B(O)O

SMILES: CC(=O)NCB(O)O [ACETAMIDOMETHYLBORONIC ACID]
Ki [16]: 8.9 µM
Ki [17]: 1.1 µM

IC50 [4]: 0.00042 µM
IC50 [5]: > 0.02 µM
IC50 [6]: 0.00443 µM
SMILES: CC(C)C[C@H](NC(=O)[C@H](Cc1ccccc1)NC(=O)[C@H](Cc1ccc2ccccc2c1)NC(=O)c1cnccn1)B(O)O

SMILES: CO/N=C(/C(=O)NCB(O)O)c1csc(N)n1
Ki [18]: 6.8 µM
Ki [19]: 0.7 µM

SMILES: O=C(O)/C=C/c1cccc([C@H](NC(=O)Cc2cccs2)B(O)O)c1
Ki [20]: 0.0028 µM
Ki [21]: 0.106 µM
Ki [22]: 3.8 µM

SMILES: COc1cc(/C=C\c2ccc(OC)c(B(O)O)c2)cc(OC)c1
IC50 [1]: 0.019 µM
IC50 [2]: 0.028 µM
IC50 [3]: 21 µM

SMILES: OB(O)/C=C/COc1ccc2ncnc(Nc3cccc(Cl)c3)c2c1
inhibition [23]: 63%
IC50 [24]: 0.27 µM
GI50 [25]: 0.68 µM

SMILES: C=CB(Oc1cccc2cccnc12)c1cccc(Cl)c1
MIC [7]: 2 µg/mL (≈ 6.81 µM)
MIC [8]: 1 µg/mL (≈ 3.41 µM)
MIC [14]: 4 µg/mL (≈ 13.6 µM)
MIC [15]: 4 µg/mL (≈ 13.6 µM)

SMILES: COc1ccc(/C=C/c2cc(OC)c(OC)c(OC)c2)cc1B(O)O
IC50 [9]: 7.8 µM
IC50 [10]: 0.47 µM
EC50 [11]: > 15 µM
